In PubChem BioAssay AID179 (DTP/NCI, 2004):
Activity calls are given as the source filed them.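 Rule for the calls: active = compounds giving half or more protection of infected cells from virus-caused growth loss, again on retest; inactive = the rest.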

Test system: CEM cells HIV-1 protection, formazan growth assay
Assay: NCI AIDS Antiviral Assay
Details: for IC50: measured here: growth of uninfected CEM cells
How it was run: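 Category rules: moderately active means at least 50% protection on retest, and confirmed active means 100% protection reproducibly. The underlying data came from a formazan growth assay in HIV-1-infected CEM cells.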

Compound | EC50 [µM] | IC50 [µM] | outcome
O=C(NN1C(=O)C(Cl)C1c1cccc([N+](=O)[O-])c1)c1ccccc1O (stereo unspecified) | > 27.5 | > 27.5 | 
CC1(CO)CCCC1NCCNC1CCCC1(C)CO (stereo unspecified) | > 182 | 107 | 
COC(=O)C1=COC(O)C2CCCC12 (stereo unspecified) | > 1260 | 107 | 
BrC(=C(c1ccc(OC2CCCCO2)cc1)c1ccc(OC2CCCCO2)cc1)c1ccccc1 (stereo unspecified) | 70.8 | > 200 | 
CC(=O)OCC1OC(Nn2c(=O)[nH]c3ccccc3c2=O)C(OC(C)=O)C(OC(C)=O)C1OC(C)=O (stereo unspecified) | > 158 | 117 | 
OCCNNCCO | > 200 | > 200 | 
C=Cc1ccccc1C1(O)C=CC(OC)(OC)C=C1 | > 200 | 7.94 | 
COc1cc2c(c([N+](=O)[O-])c1)NC(=O)C(c1ccccc1)S2 (stereo unspecified) | > 200 | 110 | 
CCN1CCC2(CC1)OC(c1ccccc1)C(c1ccccc1)O2 (stereo unspecified) | > 200 | 112 | 
COc1cc(COC(=O)N2CCC2C(=O)O)c([N+](=O)[O-])cc1OC (stereo unspecified) | > 741 | > 741 | 
Cc1ccc2c(c1)CC1(Cc3cc(C)ccc3C1=O)C2=O | > 200 | > 200 | 
Cc1ccc(CCCCCOc2ccc(C3=NCCO3)cc2)s1 |  |  | inactive
CCOC(=O)/C(=C/c1cc(OC)ccc1OC)P(=O)(OCC)OCC | > 676 | 316 | 
CCc1ccccc1NC(=O)/C(N=O)=C(/C)O | > 151 | > 151 | 
Cc1cccc(NC(=O)C(=O)C(C(=O)c2ccc3ccccc3c2)C2OC(=O)c3ccccc32)c1C (stereo unspecified) | > 28.2 | 26.3 | 
Cc1ccc(S(=O)(=O)N2CCSCCSCCSCCSCC2)cc1 | > 12 | > 12 | 
CC(C)CCCC(C)[C@H]1CC[C@H]2[C@@H]3CC[C@H]4C[C@@H](CCC=C(c5cc(Cl)c(OCc6cccc([N+](=O)[O-])c6)c(C(=O)O)c5)c5cc(Cl)c(OCc6cccc([N+](=O)[O-])c6)c(C(=O)O)c5)CC[C@]4(C)[C@H]3CC[C@]12C (stereo partly specified) | 95.5 | > 200 | 
NC(Cn1ccc(=O)c(O)c1)C(=O)O (stereo unspecified) | > 200 | 95.5 | 
CN1C(=O)/C(=c2\sc3nc4ccccc4n3c2=O)c2ccccc21 |  |  | inactive
Cc1ccc(Nc2[nH]c(=O)[nH]c(=O)c2C)cc1Cl | > 200 | 158 | 
CC1(C)C2CC(c3ccncc3)ON2C(C)(C)N1O (stereo unspecified) | > 200 | > 200 | 

Compound | EC50 [µM] | IC50 [µM] | outcome
Cc1nn(C)c2c1C(=O)N(C)CC(=O)N2C | > 200 | > 200 | 
Cc1ccc(C)c2sc3cc(=O)ccc-3nc12 | > 107 | > 107 | 
O=C1c2ccccc2C(=O)C1(Br)C(Br)c1ccccc1 (stereo unspecified) | > 200 | 2.57 | 
CCCN(CCC)C(=O)c1c(Cl)c2cccnc2n2c(C)cnc12 | > 200 | 70.8 | 
COc1cc2c(c(O)c1OC)CC1CCC(=O)N1C2c1cccc2ccccc12 (stereo unspecified) | > 200 | 17.4 | 
C/C(=N/O)c1ccc2c(c1)C(=NO)c1cc(/C(C)=N/O)ccc1-2 | > 83.2 | 11.5 | 
COc1ccc(OC2(c3cc(OC)ccc3OC)OC(=O)c3ccccc32)cc1 (stereo unspecified) | > 13.2 | > 13.2 | 
COc1ccc(CC(COS(=O)(=O)c2ccc(C)cc2)NS(=O)(=O)c2ccc(C)cc2)cc1 (stereo unspecified) | > 200 | 26.9 | 
O=C(NNC(=S)Nc1ccccc1)c1ccccc1Nc1ccccc1C(=O)NNC(=S)Nc1ccccc1 | > 30.9 | 30.2 | 
O=C1C(N=Nc2ccccc2)Sc2nc3ccccc3n21 (stereo unspecified) | > 200 | 85.1 | 
Cc1ccc(NC(=O)CC2C(=O)Nc3ccccc3S2(=O)=O)cc1C (stereo unspecified) | > 10.5 | > 10.5 | 
CC(=O)Nc1ccc(-c2nnc(SCC(=O)Nc3ccccc3)o2)cc1 | > 37.2 | 20.9 | 
CCOC(=O)/C(=C\c1cccc([N+](=O)[O-])c1)C(C)=O |  |  | inactive
CC1CN=C(Nc2cccc(F)c2)S1 (stereo unspecified) | 0.191 | > 200 | 
CN(C)CCC(/C=C/c1ccccc1)=N\Nc1ccccc1 |  |  | inactive
CC1(C)CC(=O)c2c(nc3ccc4ccccc4c3c2-c2ccc(NC(=O)CCCC(=O)Nc3ccc(-c4c5c(nc6ccc7ccccc7c46)CC(C)(C)CC5=O)cc3)cc2)C1 | > 100 | > 100 | 
COc1ccc(C[C@H]2COC(=O)[C@@H]2Cc2cc(OC)c(O)c(OC)c2)cc1OC | > 200 | 39.8 | 
CC12C=CC(=O)C=C1CCC1C3CCC(O)(C(=O)CO)C3(C)CC(O)C12F (stereo unspecified) |  |  | inactive
COc1cc2c3c(c1)nc(C)n3C(=O)C(c1ccccc1)S2 (stereo unspecified) |  |  | inactive
O=C(NC(CSC(c1ccccc1)c1ccccc1)C(=O)Oc1ccc([N+](=O)[O-])cc1)OCc1ccccc1 (stereo unspecified) | > 200 | 85.1 | 
Cc1cc(O)c(C=O)c2c1C(=O)Oc1c(C)c(O)c(C(=O)O)c(C)c1O2 | > 200 | 186 | 

Compound | EC50 [µM] | IC50 [µM] | outcome
CN(C)CC1COC2Cc3ccccc3C1O2 (stereo unspecified) | > 200 | > 200 | 
OCc1ccc2[n+](c1)CCc1c-2[nH]c2ccccc12 | > 77.6 | > 77.6 | 
O=C1CCCC1C(O)(C(F)(F)Cl)C(F)(F)Cl (stereo unspecified) | > 200 | > 200 | 
CCOC(=O)C1=C(C)N(NC(N)=O)C2(N)N(NC(N)=O)C(C)=C(C(=O)OCC)C12C#N (stereo unspecified) | > 575 | 427 | 
CC(=O)OCC(OC(C)=O)C(OC(C)=O)C1OC(Oc2ccccc2)C(OC(C)=O)C1OC(C)=O (stereo unspecified) | > 200 | > 200 | 
COc1cccc2c1CCc1c(-c3ccc(F)cc3)cc(-c3ccc4ccccc4n3)nc1-2 | > 200 | > 200 | 
COc1ccc2c(c1OC)Oc1c(OC)ccc3c1C(C2)NCC3 (stereo unspecified) | > 170 | > 100 | 
Cc1cn(C2CC(N(O)Cc3ccccc3)C(CO)O2)c(=O)[nH]c1=O (stereo unspecified) | > 200 | > 200 | 
Cc1c(C(=O)N(CCO)CCO)[n+](=O)c2ccccc2n1[O-] | > 575 | > 575 | 
CCC(=O)CCCC=C(c1cc(Cl)c(OC)c(C(=O)CC)c1)c1cc(Cl)c(OC)c(C(=O)CC)c1 | > 200 | 6.31 | 
CC1=COC(=O)c2ccccc2N1 | > 537 | 141 | 
O=C1/C(=C/c2ccccc2)CC/C1=C\c1ccccc1 |  |  | inactive
CC(C)(C)c1cc2c(O)c(c1)Cc1cc(C(C)(C)C)cc(c1O)Cc1cc(C(C)(C)C)cc(c1O)Cc1cc(C(C)(C)C)cc(c1O)C2 | > 77.6 | > 77.6 | 
CCCCCCCCCC(=O)OC1CN2CC[C@H](O)C2C(O)[C@@H]1O (stereo partly specified) |  |  | inactive
CCOC(=O)c1ccc(N/N=[N+](/[O-])CC2OC(n3ccc(=O)[nH]c3=O)C(O[Si](C)(C)C(C)(C)C)C2O[Si](C)(C)C(C)(C)C)cc1 (stereo unspecified) | > 200 | 21.4 | 
COCC#C[C@@]1(O)CCCCC1CC(OC)OC (stereo partly specified) | > 200 | 112 | 
Nc1ccc([N+](=O)[O-])c(S(=O)(=O)O)c1 | > 1150 | > 1150 | 
O=C1CCN(CCC(F)(F)C(F)(F)C(F)(F)C(F)(F)C(F)(F)C(F)(F)F)C(=S)N1CCC(F)(F)C(F)(F)C(F)(F)C(F)(F)C(F)(F)C(F)(F)F | > 16.6 | > 16.6 | 
C[C@@H](NC(=O)c1ccccc1SC(=O)OCC[n+]1ccccc1)C(N)=O | 2.82 | > 200 | 
O=C(c1ccccc1)C1N(c2ccccc2)CCN1c1ccccc1 | > 200 | 21.9 | 
